Reference: PMC5697638, “Identification of a Potent Phosphoinositide 3‐Kinase Pan Inhibitor Displaying a Strategic Carboxylic Acid Group and Development of Its Prodrugs” (Chemmedchem, 2017)

Columns and labels:
[1] = metabolic stability in rat liver microsomes (RLM); format: in vitro ADME
Protocol: Twelve esters were prepared (see the Experimental Section for their synthesis and the Supporting Information for chromatographic methods) and evaluated in terms of metabolic stability. For this task, a combined approach based on microsomal and plasmatic stability assays was exploited considering the relevance of the plasmatic and hepatic tissues in esterase activity. Microsomal stability of the selected esters was evaluated by monitoring the disappearance of the substrate incubated in rat liver microsomes (RLM) at 50 μM concentration, in the presence of NADPH. In Table 4, the percentage of the remaining substrate, after incubation (t=60 min), with respect to the initial amount is reported. Overall, the compounds underwent a relevant metabolic transformation, and the substrate depletion ranged from 0 (for 76) to 100 % (for 70). This is mainly due to hydrolysis of the ester function, whereas the metabolites arising from the oxidation catalyzed by the NADPH‐dependent monooxygenase system were negligible from a quantitative point of view. Indeed, the main metabolite formed during the incubation of the esters was corresponding carboxyl derivative 37. […] Moreover, whereas CH2‐pyridin‐4‐yl ester 70 was completely metabolized, corresponding benzyl derivative 65 and piperonyl derivative 72 were more hydrolytically stable, and their residual substrates were 53 and 83 %, respectively. The hydrolytic stability of the selected esters was also evaluated by monitoring the depletion of the substrate incubated at a 50 μM concentration in mouse plasma over a period of 30 min. As expected, the plasmatic metabolic fate of the esters was characterized by the formation of 37 as the only metabolite (see Figure S4). The rate constant k [min^−1], derived for the substrate peak area versus time curve (single‐exponential decay equation—GraphPad Prism software, Inc., San Diego, CA (USA); see Figure S5) was used to calculate the in vitro half‐life t 1/2 [min], and the values are reported in Table 4.
Metabolic stability of PI3K inhibitors in RLM fraction
The standard incubation mixture (500 µL final volume), in 1.5 mL Eppendorf tubes, was carried out in a 50 mM TRIS-HCl buffer (pH 7.4) containing 3.3 mM MgCl2, 1.3 mM NADPNa2, 3.3 mM glucose 6-phosphate, 0.4 Units/mL glucose 6-phosphate dehydrogenase (NADPH regenerating system), acetonitrile as cosolvent (1% of final volume) and 50 µM of substrate. After pre-equilibration of the mixture, an appropriate volume of rat microsomal suspension was added to give a final protein concentration of 1 mg/mL. The mixture was shaken for 1 hour at 37°C and the reaction was quenched by diluting the samples with 500 µL of ice-cold acetonitrile. The samples were then centrifuged at 13,000 rpm for 10 min, and the supernatant was directly injected onto the HPLC column for analysis. Control incubations were performed without microsomes. […]
A Shimadzu HPLC system (Shimadzu, Kyoto, Japan), consisting of two LC-10AD Vp module pumps, an SLC-10A Vp system controller, an SIL-10AD Vp autosampler, and a DGU-14-A on-line degasser was used for the analysis. All the chromatographic separations were performed on a Phenomenex Luna C18 5µm (150 x 4.6 mm i.d.) (Phenomenex srl, Castel Bolognese, Italy) as a stationary phase protected by a Luna C18 SecurityGuard (Phenomenex srl). The SPD-M10Avp photodiode array detector was used to detect the analyte at 254 nm. LC Solution 1.24 software was used to process the chromatograms. Aliquots (20 µL) of supernatants obtained from incubations were injected onto the HPLC system and eluted with a mobile phase (flow rate: 1 mL/min) consisting of solvent A- 0.5% aqueous formic acid solution and solvent B- acetonitrile/methanol 80:20.
The eluants were filtered through a 0.45-µm pore size polyvinylidene difluoride membrane […]
The following gradients programs were used: […]

[2] = test system: PI3K/Akt signaling in PC3 cells; experiment: PI3K/Akt signaling, Western blot, PC3 cells; format: cell-based; details: 12 h treatment, immunoblot
Protocol: PC3 cells were treated with the indicated concentrations of 64 for 12 h. At the end of treatment, cells were harvested and total cell lysates were prepared. Immunoblot analysis was performed to analyze the expression levels of p‐Akt (T308 and S473), p‐PRAS40 (T246; a target of Akt), as well as the levels of p‐p70S6K (T389), p‐GSK3α/β (S9), and p‐FOXO3A (T32). The figure is representative of at least three independent experiments.
Western blot analysis: PC3 cells were seeded in 96‐well plates in the presence of free Dulbecco's modified Eagle's medium (DMEM) high‐glucose GlutaMAX^TM (Gibco), 10 % fetal bovine serum (Invitrogen) supplemented with 5000 U mL^−1 penicillin–streptomycin (Gibco). Subsequently, PC3 cells were incubated with increasing concentrations of […] for 12 h. Cells were then lysed with a lysis buffer containing 20 mM Tris‐HCl pH 8, 138 mM NaCl, 2.7 mM KCl, 1 mM CaCl2, 5 mM EDTA pH 8, 1 mM MgCl2, 5 % glycerol, 1 % Triton X‐100, and protein extracts were analyzed by Western blot analysis. […]

[3] = metabolic stability in rat liver microsomes (RLM); format: in vitro ADME; details: 50 μM substrate, 60 min

With `COC(=O)c1cccc(Cn2cc(-c3cccc4c(=O)cc(N5CCOCC5)[nH]c34)nn2)c1` [Compound 64, Methyl 3‐{[4‐(2‐morpholino‐4‐oxo‐1,4‐dihydroquinolin‐8‐yl)‐1H‐1,2,3‐triazol‐1‐yl]methyl}benzoate] the “Residual microsomal substrate (t=60 min)” value ([1]; RLM, 50 μM substrate, with NADPH, LC–UV) was 20%, the “% residual substrate, NADPH (without RLM)” value ([1]; control incubation without microsomes, 50 μM, 60 min) was 100% and the “levels of p-Akt and Akt effectors” value [2] was “attenuated, in a dose‐dependent manner, the levels of p‐Akt”. The “% residual substrate, RLM (without NADPH)” value [3] was 32%.
